The structures appear in SMILES notation. In brackets after ≈: the same amount, converted by molar mass. A value given as a limit tells only on which side of the number the result lay.

The values that follow come from ChEMBL document CHEMBL4118066, “QSAR-driven design, synthesis and discovery of potent chalcone derivatives with antitubercular activity” (Eur J Med Chem, 2017).

Data set [1] has as its system Mycobacterium tuberculosis. Briefly: microbe, parasite or virus in culture. It counts as functional. To be noted: H37Rv ATCC 27294, 168 h.
Description: Antitubercular activity against Mycobacterium tuberculosis H37Rv ATCC 27294 after 7 days under normoxic condition by microplate Alamar blue assay
The next data set has as its system Escherichia coli. Briefly: Antibacterial activity against Escherichia coli ATCC 25922 after 16 to 20 hrs. In kind it is functional.
The nature of a further data set: in vitro. The following applies: monkey, Vero cells.
Another data set relates to Staphylococcus aureus. Briefly: Antibacterial activity against Staphylococcus aureus ATCC 29213 after 16 to 20 hrs. In kind it is functional.
In data set [2] the test system is Mycobacterium tuberculosis. Briefly: Antitubercular activity against Mycobacterium tuberculosis H37Rv ATCC 27294 treated for 10 days under hypoxic condition followed by 28 hrs of normoxic recovery. It counts as functional.
For the next data set, the system named is Candida albicans. Briefly: Antifungal activity against Candida albicans ATCC 90028 after 36 to 48 hrs. It counts as functional.
Data set [3] has as its system Mycolicibacterium smegmatis. Briefly: Antimycobacterial activity against Mycobacterium smegmatis ATCC MC2155 after 7 days under normoxic condition by microplate Alamar blue assay. It counts as functional. To be noted: str. MC2 155, 168 h. On the technique in general: Alamar Blue is a resazurin reagent that responds to reducing activity.
The test system of the next data set is Mycobacteroides chelonae. Briefly: Antimycobacterial activity against Mycobacterium chelonae ATCC 35752 after 7 days under normoxic condition by microplate Alamar blue assay. To be noted: ATCC 35752, 168 h. It counts as functional.
Data set [4] deals with Mycobacteroides abscessus. Briefly: Antimycobacterial activity against Mycobacterium abscessus ATCC 19977 after 7 days under normoxic condition by microplate Alamar blue assay. It counts as functional. To be noted: ATCC 19977, 168 h.
The next data set relates to Mycobacterium avium. Briefly: Antimycobacterial activity against Mycobacterium avium ATCC 15769 after 7 days under normoxic condition by microplate Alamar blue assay. The following applies: ATCC 15769, 168 h. It counts as functional.
For another data set, the system named is Mycobacterium kansasii. Briefly: Antimycobacterial activity against Mycobacterium kansasii ATCC 12478 after 7 days under normoxic condition by microplate Alamar blue assay. In kind it is functional. The following applies: ATCC 12478, 168 h.
The next data set concerns Mycobacterium marinum. Briefly: Antimycobacterial activity against Mycobacterium marinum ATCC 927 after 7 days under normoxic condition by microplate Alamar blue assay. It counts as functional. The following applies: ATCC 927, 168 h.

Description for in vitro: Selectivity index, ratio of IC50 for African green monkey Vero cells to MIC90 for Mycobacterium tuberculosis H37Rv ATCC 27294 under normoxic condition

For `O=C(/C=C/c1ccc([N+](=O)[O-])o1)c1ccc(N2CCOCC2)cc1`, the MIC90 in [1] was 0.81 µM (≈ 0.266 µg/mL); against Escherichia coli it was more than 10 µM; in the data set on Staphylococcus aureus, 1.19 µM (≈ 0.391 µg/mL); in data set [2], 9.85 µM (≈ 3.23 µg/mL); with Candida albicans, more than 10 µM; in [3] it was more than 10 µM. Besides, the selectivity ratio in the data set “in vitro” was 123.

For the compound `COc1ccc(/C=C/C(=O)c2cccc(I)c2)cc1`, the MIC90 in data set [1] is 4.9 µM (≈ 1.78 µg/mL); against Escherichia coli, more than 10 µM; against Mycobacteroides chelonae, more than 10 µM; in [4], more than 10 µM; with Mycobacterium avium, 9.64 µM (≈ 3.51 µg/mL); in the data set on Staphylococcus aureus it was more than 10 µM. Further, the MIC90 was more than 10 µM in data set [2]; 9.4 µM (≈ 3.42 µg/mL) with Mycobacterium kansasii; more than 10 µM against Candida albicans; more than 10 µM against Mycobacterium marinum; more than 10 µM in [3]. Besides, the selectivity ratio in “in vitro” is 20.

With `CC(C)(C)c1ccc(C(=O)/C=C/c2ccc([N+](=O)[O-])s2)cc1`, the MIC90 in data set [1] is 0.22 µM (≈ 0.0694 µg/mL); in the data set on Escherichia coli it was more than 10 µM; against Mycobacteroides chelonae it was more than 10 µM; in data set [4], more than 10 µM; in the data set with Mycobacterium avium it was 1.08 µM (≈ 0.341 µg/mL); in the data set on Staphylococcus aureus, more than 10 µM. The MIC90 in data set [2] is 4.18 µM (≈ 1.32 µg/mL); against Mycobacterium kansasii, 0.92 µM (≈ 0.29 µg/mL); in the data set on Candida albicans, more than 10 µM; against Mycobacterium marinum it was more than 10 µM; in data set [3], more than 10 µM. Further, in “in vitro”, the selectivity ratio came to 454.

As to `Cc1cccc(C(=O)/C=C/c2ccc([N+](=O)[O-])o2)c1`, the MIC90 in data set [1] is 1.27 µM (≈ 0.327 µg/mL); against Escherichia coli, more than 10 µM; in the data set on Mycobacteroides chelonae it was more than 10 µM; in [4], more than 10 µM; against Mycobacterium avium it was 1.92 µM (≈ 0.494 µg/mL); against Staphylococcus aureus, 2.23 µM (≈ 0.574 µg/mL). The MIC90 in data set [2] is 4.75 µM (≈ 1.22 µg/mL); against Mycobacterium kansasii, 0.49 µM (≈ 0.126 µg/mL); in the data set with Candida albicans it was more than 10 µM; with Mycobacterium marinum, 2.39 µM (≈ 0.615 µg/mL); in data set [3], more than 10 µM. Besides, the selectivity ratio in the data set “in vitro” turned out to be 43.

For the compound `O=C(/C=C/c1ccc([N+](=O)[O-])o1)c1ccc(-n2ccnc2)cc1`, the MIC90 in data set [1] was 1.05 µM (≈ 0.325 µg/mL); against Escherichia coli, 3.18 µM (≈ 0.984 µg/mL); against Staphylococcus aureus it was 0.34 µM (≈ 0.105 µg/mL); in data set [2], 6.94 µM (≈ 2.15 µg/mL); against Candida albicans it was more than 10 µM; in [3], more than 10 µM. The selectivity ratio in the data set “in vitro” is 94.

As for `O=C(/C=C/c1ccc([N+](=O)[O-])o1)c1ccc(N2CCNCC2)cc1`, the MIC90 was 0.27 µM (≈ 0.0884 µg/mL) in data set [1]; more than 10 µM in the data set on Escherichia coli; more than 10 µM against Staphylococcus aureus; 9.67 µM (≈ 3.17 µg/mL) in data set [2]; more than 10 µM against Candida albicans; more than 10 µM in [3]. The selectivity ratio in “in vitro” stood at 359.

Regarding `O=C(/C=C/c1ccc([N+](=O)[O-])o1)c1ccc(C2CCCCC2)cc1`, the MIC90 in [1] was 0.81 µM (≈ 0.264 µg/mL); with Escherichia coli it was more than 10 µM; against Staphylococcus aureus, more than 10 µM; in data set [2] it was 3.33 µM (≈ 1.08 µg/mL); in the data set with Candida albicans it was more than 10 µM; in data set [3], more than 10 µM. In “in vitro”, the selectivity ratio worked out at 122.

Consider `O=C(/C=C/c1ccc([N+](=O)[O-])o1)c1ccc(I)cc1`, for which the MIC90 in [1] is 0.6 µM (≈ 0.221 µg/mL); in the data set with Escherichia coli, more than 10 µM; with Mycobacteroides chelonae it was more than 10 µM; in [4], more than 10 µM; in the data set with Mycobacterium avium it was 2.38 µM (≈ 0.878 µg/mL); against Staphylococcus aureus it was more than 10 µM. Also, the MIC90 is 4.12 µM (≈ 1.52 µg/mL) in [2]; 0.59 µM (≈ 0.218 µg/mL) in the data set on Mycobacterium kansasii; more than 10 µM with Candida albicans; more than 10 µM with Mycobacterium marinum; 4.62 µM (≈ 1.71 µg/mL) in [3]. Further, in “in vitro”, the selectivity ratio came to 166.

Regarding `CC(C)(C)c1ccc(C(=O)/C=C/c2ccco2)cc1`, the MIC90 (in data set [1]; against Escherichia coli; in the data set with Mycobacteroides chelonae; in data set [4]; with Mycobacterium avium; in the data set on Staphylococcus aureus) was more than 10 µM throughout. Besides, the MIC90 (in data set [2]; against Mycobacterium kansasii; against Candida albicans; in the data set on Mycobacterium marinum; in data set [3]) was more than 10 µM throughout.
